“And” between values parts separate entries of the source, which are not always exact repeats. Equal entries are not always repeated. After the bases stand the sugars from the 5' end (letter, count) and the backbone: PS all phosphorothioate, else s phosphorothioate and o phosphodiester by linkage. Methylation of C is not given here. e = 2'-O-(2-methoxyethyl) (MOE); k = constrained ethyl (cEt); d = 2'-deoxy (DNA); m = 2'-O-methyl

The series addresses IRF5. The settings on record: ASO.

Sequence “ACCACTGTGTACCCCA (sugars kkdddddddddkekek, PS)” displayed a target mRNA inhibition (KARPAS-229, 4 µM) of 17%. In the case of “GTGAGTCTCAAACCAG (sugars kekdddddddddeekk, PS)”, under “KARPAS-229, 4 µM”, the target mRNA inhibition worked out at 22%.

“GTCTTGACCTCCCGCT (sugars kkdddddddddkdkdk, PS)”: the target mRNA inhibition (KARPAS-229, 4 µM) was found to be 46%.

“TATCTCCGTCCTGGCT (sugars kdddddddddkekeke, PS)” showed a target mRNA inhibition (KARPAS-229, 4 µM) of 0%. “CATTCCATATACACAC (sugars kkdddddddddkekek, PS)” came in with a target mRNA inhibition (KARPAS-229, 4 µM) of 54%. For the sequence “CCACTGTGTACCCCAT (sugars kkdddddddddkdkdk, PS)”, the target mRNA inhibition (KARPAS-229, 4 µM) is 54%. “GGTCTTTGAGGTCTGG (sugars k2 d9 e3 k2, PS)”: the target mRNA inhibition (KARPAS-229, 0.44444 µM) amounted to 22%; the target mRNA inhibition (KARPAS-229, 1.33333 µM) came out at 58%; the target mRNA inhibition (KARPAS-229, 4 µM) was 74% and 69%; the target mRNA inhibition (KARPAS-229, 12 µM) came out at 79%.

Regarding TCATTTGCCTTCTGCA (sugars k3 d10 k3, PS), the target mRNA inhibition (KARPAS-229, 4 µM) was 6%. Under “KARPAS-229, 4 µM”, “GGAGTGAGACGAGCAA (sugars kkddddddddkekekk, PS)” returned a target mRNA inhibition of 38%. Same read-out and setting: next, “AGCTTGGTCTTGACCT (sugars kkdddddddddkekek, PS)”: 8%; “GGAAGTGAGTCTCAAA (sugars kkddddddddkekekk, PS)”: 36%.

As to “GGGCACAGCGCAGGTT (sugars kkddddddddkekekk, PS)”, the target mRNA inhibition was 15% (KARPAS-229, 0.44444 µM); 32% (KARPAS-229, 1.33333 µM); 61% and 66% (KARPAS-229, 4 µM); 76% (KARPAS-229, 12 µM). Sequence “TGTCACATCTCCACAT (sugars kdddddddddkekeke, PS)” displayed a target mRNA inhibition (KARPAS-229, 4 µM) of 0%.

Regarding TGTTGAATTTTGTGAC (sugars k3 d10 k3, PS), the target mRNA inhibition (KARPAS-229, 4 µM) turned out to be 26%. Consider “GTTCTTGGACTCTCAA (sugars k2 d9 e3 k2, PS)”, for which the target mRNA inhibition (KARPAS-229, 4 µM) stood at 22%. On the same count and under the same terms, next, CTTTCTTGTCTAGTGT (sugars k3 d10 k3, PS): 48%; “AGGAGTGAGACGAGCA (sugars k3 d9 k3 e1, PS)”: 37%. For “CTGTCACATCTCCACA (sugars kkdddddddddkdkdk, PS)”, the target mRNA inhibition (KARPAS-229, 4 µM) worked out at 6%. TTTGTGACTGTATTAC (sugars k3 d10 k3, PS) came in with a target mRNA inhibition (KARPAS-229, 4 µM) of 50%. In turn, “GATGGTGTTATCTCCG (sugars kkdddddddddkdkdk, PS)” displayed a target mRNA inhibition (KARPAS-229, 4 µM) of 0%. The sequence “GTGTATTTCCCTGTCT (sugars kkddddddddkekekk, PS)” gave a target mRNA inhibition (KARPAS-229, 4 µM) of 0%. With AGTGAGTCTCAAACCA (sugars k3 d10 k3, PS), under “KARPAS-229, 4 µM”, the target mRNA inhibition was found to be 0%. For the sequence “GAAGTGAGTCTCAAAC (sugars kkddddddddkekekk, PS)”, the target mRNA inhibition (KARPAS-229, 4 µM) turned out to be 27%. “GCTGTCACATCTCCAC (sugars kkkddddddddkdkdk, PS)” returned a target mRNA inhibition (KARPAS-229, 4 µM) of 35%. Same read-out and setting: the value for “GCACTGACACAGGCGG (sugars kkddddddddkekekk, PS)” was 0%. In the case of “CACATCTCCACATCAG (sugars kkkddddddddkdkdk, PS)”, the target mRNA inhibition (KARPAS-229, 4 µM) turned out to be 39%. The sequence “GCTTGGTCTTGACCTC (sugars kkddddddddkekekk, PS)” came in with a target mRNA inhibition (KARPAS-229, 4 µM) of 21%. Consider “TCTGAUATGATACCTA (sugars k3 d2 m1 d7 k3, PS)”, for which the target mRNA inhibition reads like this: (A-431, 0.00412 µM) 0%; (A-431, 0.01225 µM) 12%; (A-431, 0.03704 µM) 35%; (A-431, 0.11111 µM) 58%; (A-431, 0.33333 µM) 79%; (A-431, 1 µM) 83%. Under “KARPAS-229, 4 µM”, “CACTGACACAGGCGGA (sugars kdddddddddddekek, PS)” registered a target mRNA inhibition of 0%. On the same count and under the same terms, the value for AATTTTGTGACTGTAT (sugars k3 d10 k3, PS) was 0%. Where the note is “KARPAS-229, 4 µM”, “GCACTGACACAGGCGG (sugars kdddddddddkekeke, PS)” gave a target mRNA inhibition of 0%.

Sequence TCATGAGTAATAGGAG (sugars k3 d10 k3, PS) returned a target mRNA inhibition (KARPAS-229, 4 µM) of 11%. In the case of “GCTTGGTCTTGACCTC (sugars kkdddddddddkekek, PS)”, the target mRNA inhibition (KARPAS-229, 4 µM) amounted to 33%. For the sequence “GTCTTGACCTCCCGCT (sugars kkdddddddddkekek, PS)”, the target mRNA inhibition (KARPAS-229, 4 µM) is 40%. “AAGGGCACAGCGCAGG (sugars kkkddddddddkekek, PS)” gave a target mRNA inhibition (KARPAS-229, 4 µM) of 0%. Under “KARPAS-229, 4 µM”, “CCTTCTGCAGGGAGTC (sugars kkkdddddddddkeke, PS)” returned a target mRNA inhibition of 1%.

Regarding “GGTCTTGACCTCCCGC (sugars kkkddddddddkdkdk, PS)”, the target mRNA inhibition (KARPAS-229, 4 µM) is 4%.

The sequence “GTCTGGCCCTTTTGGA (sugars kkddddddddkekekk, PS)” returned a target mRNA inhibition (KARPAS-229, 4 µM) of 0%. Same read-out and setting: the value for “TATTTCTGCTCCAGGT (sugars k2 d8 e4 k2, PS)” was 43%.

As for “CACATCTCCACATCAG (sugars kkkdddddddddkeke, PS)”, the target mRNA inhibition (KARPAS-229, 4 µM) worked out at 38%. “AAGGGCACAGCGCAGG (sugars kkkdddddddddkeke, PS)” displayed a target mRNA inhibition (KARPAS-229, 4 µM) of 0%. In the case of AGGGTGAGTAGGACGA (sugars k3 d10 k3, PS), for the setting “KARPAS-229, 4 µM”, the target mRNA inhibition was determined as 19%. As for “ATGAGTCATGGGCTGA (sugars kkddddddddkekekk, PS)”, the target mRNA inhibition (KARPAS-229, 4 µM) worked out at 0%. Take “GAAGTGAGTCTCAAAC (sugars kddddddddddkekek, PS)”: where the note is “KARPAS-229, 4 µM”, the target mRNA inhibition turned out to be 44%. Take “TCTTGACCTCCCGCTG (sugars kdddddddddkekeke, PS)”: the target mRNA inhibition (KARPAS-229, 4 µM) was found to be 40%. Still for that read-out and setting: next, “TGAGTCATGGGCTGAG (sugars kkdddddddddkdkdk, PS)”: 12%. The sequence “GGTGTATTTCCCTGTC (sugars kekdddddddddeekk, PS)” gave a target mRNA inhibition (KARPAS-229, 4 µM) of 5%. With GGACGAGTTATGGGAA (sugars k3 d10 k3, PS), the target mRNA inhibition (KARPAS-229, 4 µM) amounted to 37%. As to “GGTCTTTGAGGTCTGG (sugars kkddddddddddkeke, PS)”, the target mRNA inhibition is, setting by setting: (KARPAS-229, 0.44444 µM) 39%; (KARPAS-229, 1.33333 µM) 43%; (KARPAS-229, 4 µM) 67% and 63%; (KARPAS-229, 12 µM) 72%. For “ACCATTCTATGCCTTT (sugars kkddddddddddkeke, PS)”, the target mRNA inhibition (KARPAS-229, 4 µM) worked out at 51%.

In the case of “GTGAGTCTCAAACCAG (sugars kkkddddddddkdkdk, PS)”, where the note is “KARPAS-229, 4 µM”, the target mRNA inhibition was found to be 0%. Under “KARPAS-229, 4 µM”, “TGCACTGACACAGGCG (sugars kkdddddddddkekek, PS)” displayed a target mRNA inhibition of 0%. As for “CCAATTTTGCATTCCA (sugars kkddddddddddkeke, PS)”, the target mRNA inhibition is 47% (KARPAS-229, 0.44444 µM); 66% (KARPAS-229, 1.33333 µM); 75% and 57% (KARPAS-229, 4 µM); 82% (KARPAS-229, 12 µM). Where the note is “KARPAS-229, 4 µM”, “CCAATGCAACATCCAT (sugars kkdddddddddkdkdk, PS)” had a target mRNA inhibition of 0%.

“AGGAAGTGAGTCTCAA (sugars kkkdddddddddkeke, PS)” showed a target mRNA inhibition (KARPAS-229, 4 µM) of 21%. Consider “GGTTCTTGGACTCTCA (sugars kkkdddddddddkeke, PS)”, for which the target mRNA inhibition is, setting by setting: (KARPAS-229, 0.44444 µM) 41%; (KARPAS-229, 1.33333 µM) 56%; (KARPAS-229, 4 µM) 48% and 67%; (KARPAS-229, 12 µM) 81%.

Under “KARPAS-229, 4 µM”, “CCCAATGCAACATCCA (sugars kkddddddddkekekk, PS)” yielded a target mRNA inhibition of 0%. Where the note is “KARPAS-229, 4 µM”, “GGTGTATTTCCCTGTC (sugars kkdddddddddkekek, PS)” displayed a target mRNA inhibition of 26%.

The sequence TTCCAATTTTGCATTC (sugars k3 d10 k3, PS) had a target mRNA inhibition (KARPAS-229, 4 µM) of 39%. The same measure, in the same setting: the value for ATGAGTCATGGGCTGA (sugars k3 d10 k3, PS) was 21%; that for “GTGTATTTCCCTGTCT (sugars kkddddddddddkeke, PS)” was 0%. Under “KARPAS-229, 4 µM”, CATCAGCTTTCTTGTC (sugars k3 d10 k3, PS) returned a target mRNA inhibition of 28%. Sequence “TCACCACTGTGTACCC (sugars k2 d9 e3 k2, PS)” returned a target mRNA inhibition (KARPAS-229, 4 µM) of 0%. Under “KARPAS-229, 4 µM”, “TGTCTAGTGTCATGGA (sugars kkddddddddkekekk, PS)” showed a target mRNA inhibition of 10%. With “CATTCCATATACACAC (sugars k3 d9 k3 e1, PS)”, the target mRNA inhibition (KARPAS-229, 4 µM) was found to be 39%. In the case of “AGTCATGGGCGTGAGGC (sugars kdddddddddkekeked, PS)”, under “KARPAS-229, 4 µM”, the target mRNA inhibition came to 17%.

Sequence “GTCTAGTGTCATGGAA (sugars kkddddddddkekekk, PS)” showed a target mRNA inhibition (KARPAS-229, 4 µM) of 9%. On the same count and under the same terms, the value for “AGATGGTGTTATCTCC (sugars kekdddddddddeekk, PS)” was 0%; that for “CCTTCTGCAGGGAGTC (sugars kkkddddddddkdkdk, PS)” was 0%; that for “CTGACACAGGCGGATG (sugars kddddddddddkekek, PS)” was 0%.

Turning to “AGGTTCTTGGACTCTC (sugars kkddddddddkekekk, PS)”, the target mRNA inhibition (KARPAS-229, 4 µM) stood at 0%. “CACATCTCCACATCAG (sugars kdddddddddkekeke, PS)” had a target mRNA inhibition (KARPAS-229, 4 µM) of 2%. Take “AGCTTGGTCTTGACCT (sugars kkddddddddddkeke, PS)”: under “KARPAS-229, 4 µM”, the target mRNA inhibition is 0%. For “ACCATTCTATGCCTTT (sugars kdddddddddkekeke, PS)”, under “KARPAS-229, 4 µM”, the target mRNA inhibition amounted to 10%.

Sequence “GGTCTGGCCCTTTTGG (sugars kkddddddddkekekk, PS)” returned a target mRNA inhibition (KARPAS-229, 4 µM) of 0%. Consider “AAGGGCACAGCGCAGG (sugars k3 d9 k3 e1, PS)”, for which, where the note is “KARPAS-229, 4 µM”, the target mRNA inhibition is 3%. On the same count and under the same terms, next, “GTCTTGACCTCCCGCT (sugars kkkddddddddkekek, PS)”: 23%. Where the note is “KARPAS-229, 4 µM”, “GGAAGTGAGTCTCAAA (sugars k2 d9 e3 k2, PS)” had a target mRNA inhibition of 32%. The sequence TAGGACGAGTTATGGG (sugars k3 d10 k3, PS) yielded a target mRNA inhibition (KARPAS-229, 4 µM) of 25%. Take “CTTGGTCTTGACCTCC (sugars kkkdddddddddkeke, PS)”: the target mRNA inhibition (KARPAS-229, 4 µM) is 15%. In turn, “ATGAGTCATGGGCTGA (sugars kekddddddddkeekk, PS)” yielded a target mRNA inhibition (KARPAS-229, 4 µM) of 0%.

(Values after the OligoGym collection.)
